# Measurements as given in article PMC6195508, “Studies on the metabolism and degradation of vancomycin in simulated in vitro and aquatic environment by UHPLC-Triple-TOF-MS/MS” (Scientific Reports, 2018).
# How the values were obtained:
# [1] = Incubation of vancomycin in activated (experimental) and inactivated (control) rat liver microsomes; type: in vitro ADME; settings: vancomycin 60 mg/L, 37 °C, UHPLC-Triple-TOF-MS/MS
# Protocol: (§1) UHPLC-Triple-TOF-MS/MS analysis was performed on a Shimadzu LC-30A UHPLC system (Kyoto, Japan) consisting of an autosampler (SIL-30AC), a binary pump (LC-30AD) and a column oven (CTO-30A) connected to an AB SCIEX triple TOF 5600 MS/MS system (Redwood, USA) equipped with Duo-Spray ion source. The compound separation was conducted with a Poroshell 120 EC-C18 (2.1 × 150 mm, 2.7 μm, Agilent InfinityLab, USA) chromatographic column maintained at 40 °C. The mobile phases A (0.1% aqueous formic acid) and B (acetonitrile) were used to optimized the gradient elution program, which was operated at follows: 0–1 min, 5% B; 1–9 min, 5–10% B; 9–14 min, 10–45% B; 14–20 min, 45–90% B; 20–25 min, 90% B for washing the column; 25–25.1 min, 90–5% B; 25.1–30 min, 5% B for equilibrating the column. The constant flow rate was 0.4 mL/min, and the injection volume was 5 µL.
# (§2) The full-scan MS spectra and MS/MS spectra data were obtained in positive electrospray ionization (ESI) mode by Analyst TF 1.6 software (AB Sciex, USA). Full scan mode was applied, the parent ions scan ranged from m/z 100 to 2000 Da with a 200 ms accumulation time and the product ions scan range from 100 to 1500 Da with a 70 ms accumulation time. Simultaneously, the calibration delivery system calibrated mass numbers by every five samples to acquire exact mass of ions. The running time of data independent acquisition (DIA) was 20 min. […]
# [2] = Degradation of vancomycin in phosphate buffer saline (PBS system); type: physicochemical; settings: chemical stability in phosphate buffer saline; vancomycin 60 mg/L; 37 °C, constant temperature oscillator, sampled every 24 h for 10 days; one sample per time point; UHPLC-Triple-TOF-MS/MS, ESI+
# Protocol: as §1, §2
# [3] = Degradation of vancomycin in pure water (pure water system); type: physicochemical; settings: chemical stability in pure (Milli-Q) water; vancomycin 60 mg/L; 37 °C, constant temperature oscillator, sampled every 24 h for 10 days; one sample per time point; UHPLC-Triple-TOF-MS/MS, ESI+
# Protocol: as §1, §2
compound,measurement,setting,value
"CN[C@H](CC(C)C)C(=O)N[C@H]1C(=O)N[C@@H](CC(N)=O)C(=O)N[C@H]2C(=O)N[C@H]3C(=O)N[C@H](C(=O)N[C@H](C(=O)O)c4cc(O)cc(O)c4-c4cc3ccc4O)[C@H](O)c3ccc(c(Cl)c3)Oc3cc2cc(c3O[C@@H]2O[C@H](CO)[C@@H](O)[C@H](O)[C@H]2O[C@H]2C[C@](C)(N)[C@H](O)[C@H](C)O2)Oc2ccc(cc2Cl)[C@H]1O [vancomycin, Vancomycin]",half-life at 60 mg/L,"[1]; male, Sprague-Dawley rat liver microsomes 1 mg/mL protein (activated with 1 mmol/L NADPH, or inactivated), PBS, MgCl2 3.3 mmol/L, constant temperature oscillator, pre-heated 5 min, sampled every 24 h for 10 days, one sample per time point, ESI+, read-out: time to 50% loss of vancomycin in rat liver microsomes (converted)",~144 h
same,metabolism by liver microsomal cytochrome P450 enzymes (activated versus inactivated microsomes),"[1]; similar degradation rate in activated (NADPH 1 mmol/L) and inactivated rat liver microsomes, 1 mg/mL protein",not metabolized in the liver
same,time to 50% loss of vancomycin in PBS,[2],approximately 9 days
same,time to 50% loss of vancomycin in water,[3],over 10 days
